Reference: ChEMBL document CHEMBL5137065, “Recent Advances with KDM4 Inhibitors and Potential Applications” (J Med Chem, 2022)
Each block holds one molecule with its values, some of them ahead of it.

What was measured:
[1] = molecular target: T1, Lysine-specific demethylase 4A (Homo sapiens, UniProt O75164); assay: Inhibition of binding of H3K4Me3 to KDM4A tudor domain (unknown origin) measured by NanoBRET-based cellular proximity assay
T1 sequence (O75164 whole entry): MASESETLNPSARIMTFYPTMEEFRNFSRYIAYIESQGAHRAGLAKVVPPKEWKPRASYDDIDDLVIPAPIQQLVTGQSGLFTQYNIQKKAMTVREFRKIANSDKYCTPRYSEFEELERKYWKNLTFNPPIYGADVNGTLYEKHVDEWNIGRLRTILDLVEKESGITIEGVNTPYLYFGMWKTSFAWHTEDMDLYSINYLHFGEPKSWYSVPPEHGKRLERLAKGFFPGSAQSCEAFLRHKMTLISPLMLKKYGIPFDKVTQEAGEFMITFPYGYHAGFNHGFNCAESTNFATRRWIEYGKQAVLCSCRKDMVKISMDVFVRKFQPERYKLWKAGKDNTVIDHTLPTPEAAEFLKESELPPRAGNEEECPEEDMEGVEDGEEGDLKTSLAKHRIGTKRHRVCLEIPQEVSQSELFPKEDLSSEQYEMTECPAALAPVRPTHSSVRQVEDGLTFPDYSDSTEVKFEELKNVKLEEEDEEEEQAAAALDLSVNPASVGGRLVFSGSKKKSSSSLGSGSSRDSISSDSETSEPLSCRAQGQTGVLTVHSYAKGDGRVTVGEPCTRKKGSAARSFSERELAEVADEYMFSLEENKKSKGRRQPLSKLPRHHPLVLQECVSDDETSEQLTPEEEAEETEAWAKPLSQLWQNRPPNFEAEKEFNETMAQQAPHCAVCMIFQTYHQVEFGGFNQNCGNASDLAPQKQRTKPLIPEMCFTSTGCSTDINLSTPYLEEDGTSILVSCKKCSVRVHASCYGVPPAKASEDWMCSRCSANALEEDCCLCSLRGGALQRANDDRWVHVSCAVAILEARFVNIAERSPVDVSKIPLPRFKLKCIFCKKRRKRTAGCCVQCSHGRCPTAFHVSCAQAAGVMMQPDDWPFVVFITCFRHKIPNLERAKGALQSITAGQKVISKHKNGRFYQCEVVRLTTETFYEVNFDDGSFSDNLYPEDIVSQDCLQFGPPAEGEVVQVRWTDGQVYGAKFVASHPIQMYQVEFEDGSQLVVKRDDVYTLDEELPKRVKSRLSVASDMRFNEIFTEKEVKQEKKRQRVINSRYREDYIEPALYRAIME

[2] = molecular target: T2, Lysine-specific demethylase 2A (Homo sapiens, UniProt Q9Y2K7); assay: Inhibition of KDM2A in human MIA PaCa-2 cells assessed as induction of H3K36me2 measured by immunofluorescence assay; type: cell-based
T2 sequence (Q9Y2K7 whole entry): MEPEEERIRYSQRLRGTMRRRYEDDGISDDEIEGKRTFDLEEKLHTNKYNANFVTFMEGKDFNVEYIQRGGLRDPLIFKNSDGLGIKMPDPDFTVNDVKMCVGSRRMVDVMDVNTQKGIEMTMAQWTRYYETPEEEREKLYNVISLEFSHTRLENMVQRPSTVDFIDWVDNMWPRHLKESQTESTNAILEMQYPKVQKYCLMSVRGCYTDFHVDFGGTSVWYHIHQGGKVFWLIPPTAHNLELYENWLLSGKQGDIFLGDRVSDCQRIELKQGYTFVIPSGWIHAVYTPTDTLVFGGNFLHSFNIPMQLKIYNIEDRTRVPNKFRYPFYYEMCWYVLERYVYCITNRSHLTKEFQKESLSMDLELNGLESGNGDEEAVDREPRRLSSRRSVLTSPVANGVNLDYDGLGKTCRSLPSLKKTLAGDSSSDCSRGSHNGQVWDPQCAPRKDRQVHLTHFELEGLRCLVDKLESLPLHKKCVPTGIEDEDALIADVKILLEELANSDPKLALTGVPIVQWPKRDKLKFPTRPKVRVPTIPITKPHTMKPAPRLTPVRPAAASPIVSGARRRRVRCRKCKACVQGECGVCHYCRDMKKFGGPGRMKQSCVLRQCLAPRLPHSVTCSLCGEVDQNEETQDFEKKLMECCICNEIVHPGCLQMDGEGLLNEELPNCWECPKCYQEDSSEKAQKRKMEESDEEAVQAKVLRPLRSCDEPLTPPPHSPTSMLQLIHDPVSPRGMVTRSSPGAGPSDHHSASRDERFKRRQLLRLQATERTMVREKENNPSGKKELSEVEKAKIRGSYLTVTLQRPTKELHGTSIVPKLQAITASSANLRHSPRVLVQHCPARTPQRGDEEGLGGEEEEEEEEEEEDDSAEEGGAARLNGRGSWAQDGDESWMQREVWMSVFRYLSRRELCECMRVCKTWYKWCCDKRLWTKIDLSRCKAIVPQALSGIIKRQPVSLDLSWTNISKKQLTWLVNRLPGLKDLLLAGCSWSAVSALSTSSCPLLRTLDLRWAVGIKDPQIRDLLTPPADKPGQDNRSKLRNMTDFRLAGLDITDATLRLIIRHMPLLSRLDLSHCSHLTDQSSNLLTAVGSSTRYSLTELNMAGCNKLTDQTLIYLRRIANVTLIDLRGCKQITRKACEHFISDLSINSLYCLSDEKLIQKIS

[3] = molecular target: T1, Lysine-specific demethylase 4A
[4] = molecular target: T1, Lysine-specific demethylase 4A; remark: listed apart in the source
[5] = Permeability of compound in human Caco-2 cells; type: ADME, cell-based; settings: read-out: permeability
[6] = molecular target: T3, Lysine-specific demethylase 4B (Homo sapiens, UniProt O94953); assay: Inhibition of human KDM4B measured by AlphaLISA assay
T3 sequence (O94953 whole entry): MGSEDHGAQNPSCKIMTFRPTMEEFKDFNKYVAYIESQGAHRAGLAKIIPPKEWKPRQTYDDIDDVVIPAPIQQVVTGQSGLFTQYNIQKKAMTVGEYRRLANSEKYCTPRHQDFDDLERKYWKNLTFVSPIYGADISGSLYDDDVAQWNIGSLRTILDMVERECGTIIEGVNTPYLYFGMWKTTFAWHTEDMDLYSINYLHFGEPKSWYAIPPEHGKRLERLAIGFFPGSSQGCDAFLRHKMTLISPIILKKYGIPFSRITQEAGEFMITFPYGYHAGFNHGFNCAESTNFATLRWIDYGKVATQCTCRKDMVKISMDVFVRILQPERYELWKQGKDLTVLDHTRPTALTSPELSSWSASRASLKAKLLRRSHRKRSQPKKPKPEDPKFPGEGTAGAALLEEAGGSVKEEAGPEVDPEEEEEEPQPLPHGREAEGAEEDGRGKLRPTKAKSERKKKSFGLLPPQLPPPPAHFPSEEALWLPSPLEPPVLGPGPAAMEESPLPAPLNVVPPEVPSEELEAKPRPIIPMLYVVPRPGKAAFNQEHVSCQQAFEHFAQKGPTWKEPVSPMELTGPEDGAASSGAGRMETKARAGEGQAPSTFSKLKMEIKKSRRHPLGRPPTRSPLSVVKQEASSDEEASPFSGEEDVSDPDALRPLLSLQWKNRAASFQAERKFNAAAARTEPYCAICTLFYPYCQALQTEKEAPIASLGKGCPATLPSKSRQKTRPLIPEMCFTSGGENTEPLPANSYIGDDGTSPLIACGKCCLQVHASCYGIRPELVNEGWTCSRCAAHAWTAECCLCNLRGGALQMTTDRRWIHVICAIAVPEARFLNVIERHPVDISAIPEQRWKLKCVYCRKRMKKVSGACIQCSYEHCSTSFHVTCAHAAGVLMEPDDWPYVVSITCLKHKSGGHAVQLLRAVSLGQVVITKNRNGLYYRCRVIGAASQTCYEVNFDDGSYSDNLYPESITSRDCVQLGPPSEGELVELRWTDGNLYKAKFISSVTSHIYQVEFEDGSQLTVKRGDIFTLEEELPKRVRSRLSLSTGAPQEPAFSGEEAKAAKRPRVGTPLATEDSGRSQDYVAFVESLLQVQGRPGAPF

[7] = molecular target: T4, Lysine-specific demethylase 4C (Homo sapiens, UniProt Q9H3R0); assay: Inhibition of human KDM4C measured by AlphaLISA assay
T4 sequence (Q9H3R0 whole entry): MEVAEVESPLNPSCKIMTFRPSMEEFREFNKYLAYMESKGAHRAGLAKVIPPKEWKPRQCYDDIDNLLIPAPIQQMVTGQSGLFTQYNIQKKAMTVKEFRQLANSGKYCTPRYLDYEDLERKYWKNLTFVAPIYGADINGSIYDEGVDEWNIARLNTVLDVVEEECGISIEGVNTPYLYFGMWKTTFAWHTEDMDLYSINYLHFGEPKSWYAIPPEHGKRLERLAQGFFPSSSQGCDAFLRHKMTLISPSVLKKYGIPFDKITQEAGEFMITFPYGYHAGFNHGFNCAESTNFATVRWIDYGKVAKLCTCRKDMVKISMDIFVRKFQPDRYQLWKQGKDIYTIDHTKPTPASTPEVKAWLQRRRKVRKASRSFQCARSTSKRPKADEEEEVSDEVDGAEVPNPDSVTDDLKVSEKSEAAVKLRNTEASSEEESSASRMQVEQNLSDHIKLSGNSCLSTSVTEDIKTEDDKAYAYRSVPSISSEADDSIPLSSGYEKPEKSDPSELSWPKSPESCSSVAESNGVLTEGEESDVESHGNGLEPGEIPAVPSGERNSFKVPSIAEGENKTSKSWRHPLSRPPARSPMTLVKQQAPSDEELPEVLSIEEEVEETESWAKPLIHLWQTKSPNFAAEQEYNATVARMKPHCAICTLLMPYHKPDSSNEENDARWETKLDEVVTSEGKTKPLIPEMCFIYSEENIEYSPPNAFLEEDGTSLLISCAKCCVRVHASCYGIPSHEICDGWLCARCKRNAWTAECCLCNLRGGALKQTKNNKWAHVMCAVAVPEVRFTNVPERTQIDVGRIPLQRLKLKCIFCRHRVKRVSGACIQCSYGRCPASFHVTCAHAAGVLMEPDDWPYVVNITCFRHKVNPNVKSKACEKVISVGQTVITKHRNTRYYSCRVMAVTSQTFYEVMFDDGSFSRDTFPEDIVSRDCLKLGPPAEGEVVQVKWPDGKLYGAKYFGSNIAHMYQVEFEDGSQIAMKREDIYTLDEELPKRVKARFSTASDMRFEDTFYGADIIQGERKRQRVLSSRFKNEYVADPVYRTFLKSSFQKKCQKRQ

[8] = molecular target: T5, Lysine-specific demethylase 4D (Homo sapiens, UniProt Q6B0I6); assay: Inhibition of human KDM4D measured by AlphaLISA assay
T5 sequence (Q6B0I6 whole entry): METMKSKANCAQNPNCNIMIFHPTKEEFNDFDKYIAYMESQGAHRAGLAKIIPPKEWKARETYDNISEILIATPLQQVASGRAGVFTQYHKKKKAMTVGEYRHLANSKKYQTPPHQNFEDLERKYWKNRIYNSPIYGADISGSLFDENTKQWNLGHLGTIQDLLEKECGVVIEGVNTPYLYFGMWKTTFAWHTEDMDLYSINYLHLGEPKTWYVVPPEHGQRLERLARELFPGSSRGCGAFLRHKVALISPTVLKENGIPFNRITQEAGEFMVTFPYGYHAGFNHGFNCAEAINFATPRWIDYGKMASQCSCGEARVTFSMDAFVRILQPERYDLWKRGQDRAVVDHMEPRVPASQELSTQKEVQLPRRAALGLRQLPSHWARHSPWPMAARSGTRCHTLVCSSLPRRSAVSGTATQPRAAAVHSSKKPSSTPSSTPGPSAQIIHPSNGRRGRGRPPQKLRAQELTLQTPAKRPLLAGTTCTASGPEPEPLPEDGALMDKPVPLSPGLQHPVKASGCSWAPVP

EC50 [1]: 105 µM
SMILES: CN(C)C[C@H]1[C@H]2CC[C@](c3ccccc3)(C2)[C@H]1O

IC50 [2]: 0.28 µM
Ki [3]: 0.42 µM
IC50 [4]: 0.28 µM
SMILES: CN(C)c1ccc(/C=C/c2cc[n+](Cc3ccc(F)cc3)cc2)cc1

Papp [5]: 12.5 ×10⁻⁶ cm/s
SMILES: CN(C)CCCNC(=O)c1ccc(-c2cc(O)c3ncccc3c2)cc1

IC50 [6]: 24.4 µM
IC50 [7]: 24.4 µM
IC50 [8]: 24.4 µM
SMILES: O=C(O)c1cc(O)c(=O)c2c(O)c(O)cc(-c3ccccc3)c2c1
